In patent US20100029710A1, “COMPOUNDS HAVING BOTH ANGIOTENSIN II RECEPTOR ANTAGONISM AND PPARy ACTIVATING ACTIVITIES” (Pfizer Products Inc., priority 2006, published 2010):

Assays:
[1] = target: T1, Human recombinant AT1 receptor (Homo sapiens, UniProt P30556); experiment: AT1 receptor radioligand binding (flashplate); conditions: 125I Sar1,Ile8-Angiotensin II radioligand
T1 construct: purchased
T1 sequence (P30556 1-359): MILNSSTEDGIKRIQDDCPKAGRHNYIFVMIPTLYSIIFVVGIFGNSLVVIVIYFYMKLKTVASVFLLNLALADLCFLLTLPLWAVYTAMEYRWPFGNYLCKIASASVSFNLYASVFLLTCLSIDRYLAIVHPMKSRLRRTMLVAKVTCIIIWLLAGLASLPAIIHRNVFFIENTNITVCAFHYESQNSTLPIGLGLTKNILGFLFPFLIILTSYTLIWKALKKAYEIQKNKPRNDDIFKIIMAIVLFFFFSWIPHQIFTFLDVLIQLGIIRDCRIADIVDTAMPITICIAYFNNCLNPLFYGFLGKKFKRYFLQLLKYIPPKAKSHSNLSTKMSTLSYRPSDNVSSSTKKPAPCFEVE
Method: Angiotensin II receptor antagonist activity may be determined using commercially available flashplates coated with the AT1 or AT2 receptor which provide a rapid and high throughput means to evaluate compounds compared to traditional filtration based assays (Regina M. Van Der Hee et al., Journal of Biomolecular Screening 10(2); 2005; 118-126).
AT1 receptor affinity was determined in a radioligand binding format using commercially available flashplate technology. Human recombinant AT1 receptor were coated on the wells of a 96 well flashplate and test compounds were diluted and added to wells at a final concentration range of 50 μM to 1 μM. Total binding was determined in the absence of compound and non-specific binding in the presence of 10 μM cold Angiotensin II. ^125I labeled Sar^1, Ile^8-Angiotensin II was added to all wells at Kd concentration and left for 2 hours at room temperature to equilibrate. Plates were read on a TopCount (Perkin Elmer) and concentration-response curves constructed using commercial curve fitting software. The Ki was determined via interpolation and the use of the Cheng-Prussof equation.

[2] = target: T2, human PPARγ LBD bound to Gal4 DBD (Homo sapiens, UniProt P37231); experiment: PPARγ transfection luciferase reporter assay in HepG2 cells; format: cell-based; conditions: for Emax: HepG2, 24 h, compared to full agonist response (standard TZD full agonist), read-out: PPARγ % activation; for EC50: HepG2, 24 hours exposure
T2 construct: expressed in transfected cells; host or cells: HepG2
T2 sequence (P37231 238-503 limits assumed): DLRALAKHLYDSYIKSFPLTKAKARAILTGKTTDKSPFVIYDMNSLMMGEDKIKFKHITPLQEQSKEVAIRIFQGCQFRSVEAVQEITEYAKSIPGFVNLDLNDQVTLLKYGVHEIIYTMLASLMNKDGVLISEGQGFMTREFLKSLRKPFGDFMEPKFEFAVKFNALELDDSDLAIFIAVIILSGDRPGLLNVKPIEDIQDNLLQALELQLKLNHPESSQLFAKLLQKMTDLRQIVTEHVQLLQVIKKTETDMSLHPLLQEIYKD
Method: PPARγ agonist activity may be determined by a cell line transiently transfected with PPARγ bound to a DNA binding domain that controls luciferase expression. The degree of receptor agonism is measured by the amount of luciferase activity after compound treatment. The ratio of treated cells over vehicle control cells provides a measure of fold activation and allows an EC50 (shown in tables I and II as […] EC50) and % activation to be calculated
A human hepatocellular carcinoma cell line (HepG2) was subcultured into dishes and transiently transfected with DNA to allow expression of human PPARγ LBD bound to Gal4 DBD. Luciferase reporter gene and β-galactosidase control genes were co-transfected to enable activity to be measured. After 24 hours, cells were exposed to compounds in the concentration range of 0.1 nM-100 μM and left for a further 24 hours. Luciferase activity is determined by luminometry and PPARγ activation is expressed as a ratio of luciferase activity to β-galactosidase activity to account for transfection efficiency. Potency is described by an EC50 defined as the concentration of compound producing receptor activation equivalent to 50% of the maximum for that compound (shown in Table I as transfection EC50). The maximum fold activation is a measure of efficacy and is expressed as a percentage of a reference full agonist run in the same assay. Efficacy is described by % activation of receptor relative to a standard thiazolidinedione (TZD) full agonist.

Row | IC50 [1] [nM] | Emax [2] [%] | EC50 [2] [nM] | SMILES
1 | 6.9 | 63 | 45 | CCc1nc2c(C)cc(CCc3cc(C)ccc3C)nc2n1[C@H]1CCc2cc(-c3ccccc3-c3nnn[nH]3)ccc21 [Example 31, 3-((1S)-5-(2-(1H-tetrazol-5-yl)phenyl)-2,3-dihydro-1H-inden-1-yl)-5-(2,5-dimethylphenethyl)-2-ethyl-7-methyl-3H-imidazo[4,5-b]pyridine]
2 | 2.1 | 20 | 510 | CCc1nc2c(C)cc(CCCc3cccnc3)nc2n1[C@H]1CCc2cc(-c3ccccc3-c3nnn[nH]3)ccc21 [Example 32, 3-((1S)-5-(2-(1H-tetrazol-5-yl)phenyl)-2,3-dihydro-1H-inden-1-yl)-2-ethyl-7-methyl-5-(3-(pyridin-3-yl)propyl)-3H-imidazo[4,5-b]pyridine]
3 | 2.1 | 23 | 400 | CCc1nc2c(C)cc(CCCn3cccn3)nc2n1[C@H]1CCc2cc(-c3ccccc3-c3nnn[nH]3)ccc21 [Example 33, 5-(3-(1H-pyrazol-1-yl)propyl)-3-((1S)-5-(2-(1H-tetrazol-5-yl)phenyl)-2,3-dihydro-1H-inden-1-yl)-2-ethyl-7-methyl-3H-imidazo[4,5-b]pyridine]
4 | 2.1 | 12 | 595 | CCc1nc2c(C)cc(CCC(O)c3cccnc3)nc2n1[C@H]1CCc2cc(-c3ccccc3-c3nnn[nH]3)ccc21 (stereo partly drawn) [Example 34, 3-(3-((1S)-5-(2-(1H-tetrazol-5-yl)phenyl)-2,3-dihydro-1H-inden-1-yl)-2-ethyl-7-methyl-3H-imidazo[4,5-b]pyridin-5-yl)-1-(pyridin-3-yl)propan-1-ol]
5 | 0.5 | 23 | 390 | CCCc1nc2c(C)cc(CCC(C)(C)O)nc2n1[C@H]1CCc2cc(-c3ccccc3-c3nnn[nH]3)ccc21 [Example 35, 4-(3-((1S)-5-(2-(1H-tetrazol-5-yl)phenyl)-2,3-dihydro-1H-inden-1-yl)-7-methyl-2-propyl-3H-imidazo[4,5-b]pyridin-5-yl)-2-methylbutan-2-ol]
6 | 1.2 | 30 | 215 | CCc1nc2c(C)cc(CC[C@H](C)O)nc2n1[C@H]1CCc2cc(-c3ccccc3-c3nnn[nH]3)ccc21 [Example 36, (S)-4-(3-((1S)-5-(2-(1H-tetrazol-5-yl)phenyl)-2,3-dihydro-1H-inden-1-yl)-2-ethyl-7-methyl-3H-imidazo[4,5-b]pyridin-5-yl)butan-2-ol]
7 | 2 | 21 | 215 | CCc1nc2c(C)cc(CC[C@H](C)OC)nc2n1[C@H]1CCc2cc(-c3ccccc3-c3nnn[nH]3)ccc21 [Example 38, 3-((1S)-5-(2-(1H-tetrazol-5-yl)phenyl)-2,3-dihydro-1H-inden-1-yl)-2-ethyl-5-((S)-3-methoxybutyl)-7-methyl-3H-imidazo[4,5-b]pyridine]
8 | 1.1 | 24 | 135 | CCc1nc2c(C)cc(CC[C@@H](C)OC)nc2n1[C@H]1CCc2cc(-c3ccccc3-c3nnn[nH]3)ccc21 [Example 39, 3-((1S)-5-(2-(1H-tetrazol-5-yl)phenyl)-2,3-dihydro-1H-inden-1-yl)-2-ethyl-5-((R)-3-methoxybutyl)-7-methyl-3H-imidazo[4,5-b]pyridine]
9 | 0.8 | 20 | 770 | CCCc1nc2c(C)cc(CC[C@@H](C)O)nc2n1[C@H]1CCc2cc(-c3ccccc3-c3nnn[nH]3)ccc21 [Example 40, (R)-4-(3-((1S)-5-(2-(1H-tetrazol-5-yl)phenyl)-2,3-dihydro-1H-inden-1-yl)-7-methyl-2-propyl-3H-imidazo[4,5-b]pyridin-5-yl)butan-2-ol]
10 | 0.9 | 21 | 965 | CCCc1nc2c(C)cc(CC[C@H](C)O)nc2n1[C@H]1CCc2cc(-c3ccccc3-c3nnn[nH]3)ccc21 [Example 41, (S)-4-(3-((1S)-5-(2-(1H-tetrazol-5-yl)phenyl)-2,3-dihydro-1H-inden-1-yl)-7-methyl-2-propyl-3H-imidazo[4,5-b]pyridin-5-yl)butan-2-ol]
11 | 1.1 | 29 | 155 | CCc1nc2c(C)cc(CCC3(O)CCCC3)nc2n1[C@H]1CCc2cc(-c3ccccc3-c3nnn[nH]3)ccc21 [Example 42, 1-(2-(3-((1S)-5-(2-(1H-tetrazol-5-yl)phenyl)-2,3-dihydro-1H-inden-1-yl)-2-ethyl-7-methyl-3H-imidazo[4,5-b]pyridin-5-yl)ethyl)cyclopentanol]
12 | 1 | 20 | 840 | CCCc1nc2c(C)cc(CCC3(O)CCCC3)nc2n1[C@H]1CCc2cc(-c3ccccc3-c3nnn[nH]3)ccc21 [Example 43, 1-(2-(3-((1S)-5-(2-(1H-tetrazol-5-yl)phenyl)-2,3-dihydro-1H-inden-1-yl)-7-methyl-2-propyl-3H-imidazo[4,5-b]pyridin-5-yl)ethyl)cyclopentanol]
13 | 1.1 | 38 | 475 | CCc1nc2c(C)cc(CCC(O)CC)nc2n1[C@H]1CCc2cc(-c3ccccc3-c3nnn[nH]3)ccc21 (stereo partly drawn) [Example 44, 1-(3-((1S)-5-(2-(1H-tetrazol-5-yl)phenyl)-2,3-dihydro-1H-inden-1-yl)-2-ethyl-7-methyl-3H-imidazo[4,5-b]pyridin-5-yl)pentan-3-ol]
14 | 1.1 | 32 | 140 | CCc1nc2c(C)cc(CC[C@H](O)CC)nc2n1[C@H]1CCc2cc(-c3ccccc3-c3nnn[nH]3)ccc21 [Example 45, (R)-1-(3-((1S)-5-(2-(1H-tetrazol-5-yl)phenyl)-2,3-dihydro-1H-inden-1-yl)-2-ethyl-7-methyl-3H-imidazo[4,5-b]pyridin-5-yl)pentan-3-ol]
15 | 1.2 | 26 | 170 | CCc1nc2c(C)cc(CC[C@@H](O)CC)nc2n1[C@H]1CCc2cc(-c3ccccc3-c3nnn[nH]3)ccc21 [Example 46, (S)-1-(3-((1S)-5-(2-(1H-tetrazol-5-yl)phenyl)-2,3-dihydro-1H-inden-1-yl)-2-ethyl-7-methyl-3H-imidazo[4,5-b]pyridin-5-yl)pentan-3-ol]
16 | 1.3 | 34 | 550 | CCc1nc2c(C)cc(CCCO)nc2n1[C@H]1CCc2cc(-c3ccccc3-c3nnn[nH]3)ccc21 [Example 47, 3-(3-((1S)-5-(2-(1H-tetrazol-5-yl)phenyl)-2,3-dihydro-1H-inden-1-yl)-2-ethyl-7-methyl-3H-imidazo[4,5-b]pyridin-5-yl)propan-1-ol]
17 | 1.1 | 21 | 190 | CCc1nc2c(C)cc(CCCOC)nc2n1[C@H]1CCc2cc(-c3ccccc3-c3nnn[nH]3)ccc21 [Example 48, 3-((1S)-5-(2-(1H-tetrazol-5-yl)phenyl)-2,3-dihydro-1H-inden-1-yl)-2-ethyl-5-(3-methoxypropyl)-7-methyl-3H-imidazo[4,5-b]pyridine]
18 | 1.6 | 18 | 815 | CCCc1nc2c(C)cc(CCC(C)O)nc2n1[C@H]1CCc2cc(-c3ccccc3-c3nnn[nH]3)ccc21 (stereo partly drawn) [Example 49, 4-(3-((1S)-5-(2-(1H-tetrazol-5-yl)phenyl)-2,3-dihydro-1H-inden-1-yl)-7-methyl-2-propyl-3H-imidazo[4,5-b]pyridin-5-yl)butan-2-ol]
